One compound from patent US8241647B2, “Amphiphilic molecule, molecular assembly comprising the amphiphilic molecule, and use of the molecular assembly” (Waseda University, priority 2007, dated 2012) can be followed below.

Data set [1] in a line: Degree of fusion with anionic liposome (Example 9). To be noted: liposome compound/cholesterol/PEG-Glu2C18, 37°C, 30 minutes. The method, then:
In a manner similar to that in Example 2, the degree of fusion of the pH-responsive liposome with respect to the anionic liposome (DOPC/DPPG, 5/1 (molar ratio)) was calculated. The measurement method was as follows. 50 μL of 1 mM anionic liposome and 50 μL of 9 mM (converted to the mixed lipid basis) pH-responsive liposome were added to 1.9 mL of each of acetate buffers with different pHs and allowed to stand at 37° C. 30 minutes later, […] of the mixture was dividedly poured and added to 1.9 mL of HEPES buffer (pH 7.4). The resultant mixture was transferred to a quartz cell and subjected to fluorescence measurement (λex: 460 nm, 530 nm). The measurement was carried out using RF-5300PC manufactured by Shimadzu.

Data set [2] in a line: Preparation of liposome from mixed lipid (dispersion in water, high-pressure extrusion). The class given is physicochemical. To be noted: mixed lipid compound/cholesterol/PEG-Glu2C18 dispersed in water, high-pressure extrusion 0.22 μm. The method, then: Compound 7, 8 or 9 (0.177 mmol), cholesterol (0.179 mmol) and PEG-Glu2C18 (1.0 μmol) were dissolved in benzene, and the mixture was freeze-dried to prepare a mixed lipid. 20 mg of this mixed lipid was dispersed in 1 mL of water for injection, and the resultant mixture was stirred for 6 hours. After that, liposome having a particle size of about 240 nm was prepared by means of the high-pressure extrusion method (final pore diameter: 0.22 μm).
Compound 3, 12 or 13 (0.177 mmol), cholesterol (0.179 mmol) and PEG-Glu2C18 (1.0 mmol) were dissolved in benzene, and the mixture was freeze-dried to prepare a mixed lipid. 20 mg of this mixed lipid was dispersed in 1 mL of water for injection, and the resultant mixture was stirred for 6 hours. After that, liposome having a particle size of about 240 nm was prepared by means of the high-pressure extrusion method (final pore diameter: 0.22 μm).

Turning to `CCCCCCCCCCCCCCCCOC(=O)CCC(NC(=O)C(CCCCNC(=O)C(N)CCC(=O)O)NC(=O)C(N)CCC(=O)O)C(=O)OCCCCCCCCCCCCCCCC` (stereo not drawn) [Compound 3], the degree of fusion entry in data set [1] (pH 5.5 (maximum)) is on record as “about 60%”; in data set [1] (pH 7.4), “about 15%”. For the same compound, the “liposome formation with the compound as main component” value in data set [2] is “liposome was formed”.
